Numbers after ± are expanded uncertainties.
What was measured:
[1] = relative permittivity at zero frequency (dimensionless); details: 293.15 K; 91.3 kPa; Liquid; Coaxial cylinder capacitor
[2] = refractive index (Na D-line) (dimensionless); details: 293.15 K; 101.33 kPa; Liquid; Standard Abbe refractometry
[3] = Liquid; for mass density: 293.15 K, 101.33 kPa, Pycnometric method; for Normal boiling temperature: Ebulliometric method (Recirculating still)
[4] = relative permittivity at zero frequency (dimensionless); xn = mol fraction of the nth substance listed; details: 293.15 K, 91.3 kPa, Liquid, Coaxial cylinder capacitor

CC(=O)O [acetic acid]
relative permittivity at zero frequency [1]: 6.15 ± 0.02 | refractive index [2]: 1.372 ± 0.0028 | mass density [3]: 1055 ± 4.1 kg/m3 | Normal boiling temperature [3]: 118.0 ± 0.51 °C

CC(=O)O [acetic acid] + O
relative permittivity at zero frequency ([4]; x1 = 0.05): 73.5 ± 0.23 | relative permittivity at zero frequency ([4]; x1 = 0.1): 67.7 ± 0.22 | relative permittivity at zero frequency ([4]; x1 = 0.2): 58 ± 0.18 | relative permittivity at zero frequency ([4]; x1 = 0.3): 49.4 ± 0.16 | relative permittivity at zero frequency ([4]; x1 = 0.4): 41.8 ± 0.13 | relative permittivity at zero frequency ([4]; x1 = 0.5): 34.9 ± 0.11 | relative permittivity at zero frequency ([4]; x1 = 0.6): 28.5 ± 0.09 | relative permittivity at zero frequency ([4]; x1 = 0.7): 22.41 ± 0.07 | relative permittivity at zero frequency ([4]; x1 = 0.8): 16.55 ± 0.05 | relative permittivity at zero frequency ([4]; x1 = 0.9): 11.11 ± 0.04 | relative permittivity at zero frequency ([4]; x1 = 0.95): 8.64 ± 0.03 | relative permittivity at zero frequency ([4]; x1 = 0.98): 7.25 ± 0.02 | relative permittivity at zero frequency ([4]; x1 = 1): 6.15 ± 0.02

CCO [ethanol]
relative permittivity at zero frequency [1]: 25.02 ± 0.08 | refractive index [2]: 1.3612 ± 0.0028 | mass density [3]: 790 ± 2.1 kg/m3 | Normal boiling temperature [3]: 78.20 ± 0.51 °C

CCO [ethanol] + O
relative permittivity at zero frequency ([4]; x1 = 0.05): 74.7 ± 0.24 | relative permittivity at zero frequency ([4]; x1 = 0.1): 69.4 ± 0.22 | relative permittivity at zero frequency ([4]; x1 = 0.2): 59.98 ± 0.19 | relative permittivity at zero frequency ([4]; x1 = 0.3): 52.2 ± 0.17 | relative permittivity at zero frequency ([4]; x1 = 0.4): 46.1 ± 0.15 | relative permittivity at zero frequency ([4]; x1 = 0.5): 41.1 ± 0.13 | relative permittivity at zero frequency ([4]; x1 = 0.6): 37.01 ± 0.12 | relative permittivity at zero frequency ([4]; x1 = 0.7): 33.5 ± 0.11 | relative permittivity at zero frequency ([4]; x1 = 0.8): 30.36 ± 0.1 | relative permittivity at zero frequency ([4]; x1 = 0.9): 27.55 ± 0.09 | relative permittivity at zero frequency ([4]; x1 = 0.95): 26.28 ± 0.08 | relative permittivity at zero frequency ([4]; x1 = 0.98): 25.53 ± 0.08 | relative permittivity at zero frequency ([4]; x1 = 1): 25.02 ± 0.08

CO [methanol]
relative permittivity at zero frequency [1]: 33 ± 0.11 | refractive index [2]: 1.328 ± 0.0027 | mass density [3]: 793 ± 2.1 kg/m3 | Normal boiling temperature [3]: 64.70 ± 0.51 °C

CO [methanol] + O
relative permittivity at zero frequency ([4]; x1 = 0.05): 76.058 ± 0.24 | relative permittivity at zero frequency ([4]; x1 = 0.1): 72.27 ± 0.23 | relative permittivity at zero frequency ([4]; x1 = 0.2): 65.58 ± 0.21 | relative permittivity at zero frequency ([4]; x1 = 0.3): 59.67 ± 0.19 | relative permittivity at zero frequency ([4]; x1 = 0.4): 54.7 ± 0.17 | relative permittivity at zero frequency ([4]; x1 = 0.5): 50.22 ± 0.16 | relative permittivity at zero frequency ([4]; x1 = 0.6): 46.22 ± 0.15 | relative permittivity at zero frequency ([4]; x1 = 0.7): 42.54 ± 0.14 | relative permittivity at zero frequency ([4]; x1 = 0.8): 39.18 ± 0.12 | relative permittivity at zero frequency ([4]; x1 = 0.9): 36.1 ± 0.12 | relative permittivity at zero frequency ([4]; x1 = 0.95): 34.65 ± 0.11 | relative permittivity at zero frequency ([4]; x1 = 0.98): 33.72 ± 0.11 | relative permittivity at zero frequency ([4]; x1 = 1): 33 ± 0.11

O [water]
relative permittivity at zero frequency [1]: 79.99 ± 0.25 | refractive index [2]: 1.3342 ± 0.0028 | mass density [3]: 999 ± 2.2 kg/m3 | Normal boiling temperature [3]: 100.0 ± 0.5 °C

O [water] + CC(=O)O
relative permittivity at zero frequency ([4]; x2 = 0): 79.99 ± 0.25

O [water] + CCO
relative permittivity at zero frequency ([4]; x2 = 0): 79.99 ± 0.25

O [water] + CO
relative permittivity at zero frequency ([4]; x2 = 0): 79.99 ± 0.25

Reference: the NIST ThermoML archive (doi:10.1016/j.jct.2012.08.009)
